The target in the assay is Menin-MLL (Homo sapiens (Human), UniProt O00255). Briefly: Determination of binding constants (Ki) to Menin-MLL (HTRF). The following applies: HTRF, 0.25 nM H-FL-Menin, 3.2 nM FITC-MLL-4-43, 24 hr incubation; for Ki: read-out: Menin-MLL Ki HTRF Assay: Ki.

Where only a bound is given, the exact number is not on record here.

Sequence of Menin-MLL (O00255 whole entry): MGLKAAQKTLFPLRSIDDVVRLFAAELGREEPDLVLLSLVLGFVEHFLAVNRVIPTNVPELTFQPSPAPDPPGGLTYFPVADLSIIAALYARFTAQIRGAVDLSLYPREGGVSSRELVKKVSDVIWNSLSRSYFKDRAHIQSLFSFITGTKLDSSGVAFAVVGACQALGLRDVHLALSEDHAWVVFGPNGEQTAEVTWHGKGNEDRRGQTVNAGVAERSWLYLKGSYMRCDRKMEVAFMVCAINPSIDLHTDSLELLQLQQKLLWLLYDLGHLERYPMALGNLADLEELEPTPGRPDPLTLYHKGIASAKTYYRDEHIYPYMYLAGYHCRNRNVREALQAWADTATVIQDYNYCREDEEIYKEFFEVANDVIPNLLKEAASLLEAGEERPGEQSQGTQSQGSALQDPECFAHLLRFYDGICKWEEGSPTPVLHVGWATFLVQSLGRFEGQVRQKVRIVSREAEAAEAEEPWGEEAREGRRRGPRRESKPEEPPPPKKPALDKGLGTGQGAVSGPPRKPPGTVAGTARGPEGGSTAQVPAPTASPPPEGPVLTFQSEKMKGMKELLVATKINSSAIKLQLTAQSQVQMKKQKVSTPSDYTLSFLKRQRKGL

`CC(C)N(C(=O)c1cc(F)ccc1Oc1cncnc1N1CC2(CCN(C[C@@H]3CC[C@@H](NS(=N)(=O)c4ccccc4)CO3)CC2)C1)C(C)C` (mixture of isomers) [Compound 228, 5-Fluoro-N,N-diisopropyl-2-((4-(7-(((2S,5R)-5-(phenylsulfonoamidimidamido)tetrahydro-2H-pyran-2-yl)methyl)-2,7-diazaspiro[3.5]nonan-2-yl)pyrimidin-5-yl)oxy)benzamide]: the Ki was less than 1 nM.
On to `CC[S@@](=N)(=O)N[C@@H]1CC[C@@H](CN2CCC3(CC2)CN(c2ncncc2Oc2ccc(F)cc2C(=O)N(C(C)C)C(C)C)C3)OC1` (single isomer, unassigned) [Compound 226], for which the Ki was less than 1 nM.
Same read-out and setting: as for `CC[S@](=N)(=O)N[C@@H]1CC[C@@H](CN2CCC3(CC2)CN(c2ncncc2Oc2ccc(F)cc2C(=O)N(C(C)C)C(C)C)C3)OC1` (single isomer, unassigned) [Compound 227], the figure is less than 1 nM; as for `CC(C)N(C(=O)c1cc(F)ccc1Oc1cncnc1N1CC2(CCN(C[C@@H]3CC[C@@H](N[S@@](=N)(=O)c4ccccc4)CO3)CC2)C1)C(C)C` (single isomer, unassigned) [Compound 229], less than 1 nM.
On the same count and under the same terms, the figure for `CC(C)N(C(=O)c1cc(F)ccc1Oc1cncnc1N1CC2(CCN(C[C@@H]3CC[C@@H](N[S@](=N)(=O)c4ccccc4)CO3)CC2)C1)C(C)C` (single isomer, unassigned) [Compound 230] is less than 1 nM.
For `CCS(=O)(=O)N[C@@H]1CC[C@@H](CN2CCC3(CC2)CN(c2ncncc2Oc2ccc(F)cc2C(=O)N(C(C)C)[C@@H]2CC[C@H]2O)C3)OC1` (single isomer, unassigned) [Compound 256], the EC50 was less than 50 nM and the inhibition constant Ki is less than 1 nM.
The corresponding values for `CCS(=O)(=O)N[C@@H]1CC[C@@H](CN2CCC3(CC2)CN(c2ncncc2Oc2ccc(F)cc2C(=O)N(C(C)C)[C@H]2CC[C@@H]2O)C3)OC1` (single isomer, unassigned) [Compound 257] are less than 50 nM and less than 1 nM.
In turn, `CCN(C(=O)c1cc(F)ccc1Oc1cncnc1N1CC2(CCN(C[C@H]3CC[C@H](NS(=O)(=O)CC)CO3)CC2)C1)C(C)C` (stereo in doubt) [Compound 52, N-ethyl-2-((4-(7-(((2R,5S)-5-(ethylsulfonamido)tetrahydro-2H-pyran-2-yl)methyl)-2,7-diazaspiro[3.5]nonan-2-yl)pyrimidin-5-yl)oxy)-5-fluoro-N-isopropylbenzamide] showed an EC50 of less than 50 nM.
As to `CNS(=O)(=O)N[C@H]1CC[C@H](CN2CCC3(CC2)CN(c2ncncc2Oc2ccc(F)cc2C(=O)N(C(C)C)C2CC2)C3)OC1` (stereo in doubt) [Compound 146, N-Cyclopropyl-5-fluoro-N-isopropyl-2-((4-(7-(((2R,5S)-5-((N-methylsulfamoyl)amino)tetrahydro-2H-pyran-2-yl)methyl)-2,7-diazaspiro[3.5]nonan-2-yl)pyrimidin-5-yl)oxy)benzamide], the Ki is less than 1 nM.
Same read-out and setting: as for `CC(C)N(CC(F)(F)F)C(=O)c1cc(F)ccc1Oc1nncnc1N1CC2(CCN(C[C@H]3CC[C@H](NS(=O)(=O)N4CCC4)CO3)CC2)C1` (stereo in doubt) [Compound 194, 2-((5-(7-(((2R,5S)-5-(Azetidine-1-sulfonamido)tetrahydro-2H-pyran-2-yl)methyl)-2,7-diazaspiro[3.5]nonan-2-yl)-1,2,4-triazin-6-yl)oxy)-5-fluoro-N-isopropyl-N-(2,2,2-trifluoroethyl)benzamide], the figure is less than 1 nM.
As to `CCN(C(=O)c1cc(F)ccc1Oc1cncnc1N1CC2(CCN(C[C@@H]3CC[C@@H](NS(=O)(=O)C(C)C)CO3)CC2)C1)C(C)C` [Compound 3, N-ethyl-5-fluoro-N-isopropyl-2-((4-(7-(((2S,5R)-5-((1-methylethyl)sulfonamido)tetrahydro-2H-pyran-2-yl)methyl)-2,7-diazaspiro[3.5]nonan-2-yl)pyrimidin-5-yl)oxy)benzamide], the EC50 was less than 50 nM and the Ki is less than 1 nM.
Taken in the same sequence, the figures for `CCN(C(=O)c1cc(F)ccc1Oc1cncnc1N1CC2(CCN(C[C@@H]3CC[C@@H](NS(=O)(=O)C4COC4)CO3)CC2)C1)C(C)C` [Compound 5, N-ethyl-5-fluoro-N-isopropyl-2-((4-(7-(((2S,5R)-5-(oxetane-3-sulfonamido)tetrahydro-2H-pyran-2-yl)methyl)-2,7-diazaspiro[3.5]nonan-2-yl)pyrimidin-5-yl)oxy)benzamide] were less than 50 nM and less than 1 nM.
Turning to `CCN(C(=O)c1cc(F)ccc1Oc1cncnc1N1CC2(CCN(C[C@@H]3CC[C@@H](NS(=O)(=O)CC4CC4)CO3)CC2)C1)C(C)C` [Compound 7, 2-((4-(7-(((2S,5R)-5-((cyclopropylmethyl)sulfonamido)tetrahydro-2H-pyran-2-yl)methyl)-2,7-diazaspiro[3.5]nonan-2-yl)pyrimidin-5-yl)oxy)-N-ethyl-5-fluoro-N-isopropylbenzamide], the EC50 was less than 50 nM and the Ki is less than 1 nM.
Taken in the same sequence, the figures for `CCN(C(=O)c1cc(F)ccc1Oc1cncnc1N1CC2(CCN(C[C@@H]3CC[C@@H](NS(=O)(=O)CCOC)CO3)CC2)C1)C(C)C` [Compound 8, N-ethyl-5-fluoro-N-isopropyl-2-((4-(7-(((2S,5R)-5-((2-methoxyethyl)sulfonamido)tetrahydro-2H-pyran-2-yl)methyl)-2,7-diazaspiro[3.5]nonan-2-yl)pyrimidin-5-yl)oxy)benzamide] were less than 50 nM and less than 1 nM.
The corresponding values for `CCCS(=O)(=O)N[C@@H]1CC[C@@H](CN2CCC3(CC2)CN(c2ncncc2Oc2ccc(F)cc2C(=O)N(CC)C(C)C)C3)OC1` [Compound 9, N-ethyl-5-fluoro-N-isopropyl-2-((4-(7-(((2S,5R)-5-(propylsulfonamido)tetrahydro-2H-pyran-2-yl)methyl)-2,7-diazaspiro[3.5]nonan-2-yl)pyrimidin-5-yl)oxy)benzamide] are less than 50 nM and less than 1 nM.
Taken in the same sequence, the figures for `CCN(C(=O)c1cc(F)ccc1Oc1cncnc1N1CC2(CCN(C[C@@H]3CC[C@@H](NS(=O)(=O)C4CCOC4)CO3)CC2)C1)C(C)C` (stereo partly drawn) [Compound 10, N-ethyl-5-fluoro-N-isopropyl-2-((4-(7-(((2S,5R)-5-((tetrahydrofuran)-3-sulfonamido)tetrahydro-2H-pyran-2-yl)methyl)-2,7-diazaspiro[3.5]nonan-2-yl)pyrimidin-5-yl)oxy)benzamide] were less than 50 nM and less than 1 nM.
`CC(C)N(C(=O)c1cc(F)ccc1Oc1cncnc1N1CC2(CCN(C[C@@H]3CC[C@@H](NC(=O)OC(C)(C)C)CO3)CC2)C1)C1CC1` [Compound 17, tert-butyl ((3R,6S)-6-((2-(5-(2-(cyclopropyl(isopropyl)carbamoyl)-4-fluorophenoxy)pyrimidin-4-yl)-2,7-diazaspiro[3.5]nonan-7-yl)methyl)tetrahydro-2H-pyran-3-yl)carbamate]: the EC50 is less than 50 nM and the inhibition constant Ki was less than 1 nM.
The corresponding values for `CC(C)N(C(=O)c1cc(F)ccc1Oc1cncnc1N1CC2(CCN(C[C@@H]3CC[C@@H](NS(C)(=O)=O)CO3)CC2)C1)C1CC1` [Compound 18, N-cyclopropyl-5-fluoro-N-isopropyl-2-((4-(7-(((2S,5R)-5-(methylsulfonamido)tetrahydro-2H-pyran-2-yl)methyl)-2,7-diazaspiro[3.5]nonan-2-yl)pyrimidin-5-yl)oxy)benzamide] are less than 50 nM and less than 1 nM.

For the origin of these results see patent US11919901B2 (Syndax Pharmaceuticals, Inc., priority 2021, dated 2024).
